How the values were obtained:
[1] = The alpha1/alpha2 selectivity ratio is the antilog of the difference between pA2 values at alpha1 and alpha-2 adrenoceptor; type: functional
[2] = molecular target: T1, Adrenergic receptor alpha-1 (Rattus norvegicus, UniProt P15823+P23944+P43140); test: Alpha-1 Adrenoceptor blocking activity as antagonism of norepinephrine-induced contractions of epididymal portion of rat vas deferens; type: functional, tissue-based
T1 sequence (P15823 whole entry): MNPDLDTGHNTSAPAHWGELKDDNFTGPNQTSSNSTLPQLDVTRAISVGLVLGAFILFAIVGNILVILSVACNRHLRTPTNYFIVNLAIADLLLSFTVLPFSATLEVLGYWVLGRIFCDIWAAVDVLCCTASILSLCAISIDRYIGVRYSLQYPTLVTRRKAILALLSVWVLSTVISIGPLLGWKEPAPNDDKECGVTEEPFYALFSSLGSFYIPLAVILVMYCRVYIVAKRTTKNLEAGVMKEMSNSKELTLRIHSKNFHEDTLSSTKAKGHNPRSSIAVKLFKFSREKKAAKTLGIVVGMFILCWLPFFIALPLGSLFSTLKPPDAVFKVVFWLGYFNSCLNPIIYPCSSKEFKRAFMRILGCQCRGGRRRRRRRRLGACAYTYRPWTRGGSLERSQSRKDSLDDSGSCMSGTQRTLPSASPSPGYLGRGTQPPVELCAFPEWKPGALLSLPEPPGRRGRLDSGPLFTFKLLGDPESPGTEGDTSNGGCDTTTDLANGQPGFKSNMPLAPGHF
T1 sequence (P23944 whole entry): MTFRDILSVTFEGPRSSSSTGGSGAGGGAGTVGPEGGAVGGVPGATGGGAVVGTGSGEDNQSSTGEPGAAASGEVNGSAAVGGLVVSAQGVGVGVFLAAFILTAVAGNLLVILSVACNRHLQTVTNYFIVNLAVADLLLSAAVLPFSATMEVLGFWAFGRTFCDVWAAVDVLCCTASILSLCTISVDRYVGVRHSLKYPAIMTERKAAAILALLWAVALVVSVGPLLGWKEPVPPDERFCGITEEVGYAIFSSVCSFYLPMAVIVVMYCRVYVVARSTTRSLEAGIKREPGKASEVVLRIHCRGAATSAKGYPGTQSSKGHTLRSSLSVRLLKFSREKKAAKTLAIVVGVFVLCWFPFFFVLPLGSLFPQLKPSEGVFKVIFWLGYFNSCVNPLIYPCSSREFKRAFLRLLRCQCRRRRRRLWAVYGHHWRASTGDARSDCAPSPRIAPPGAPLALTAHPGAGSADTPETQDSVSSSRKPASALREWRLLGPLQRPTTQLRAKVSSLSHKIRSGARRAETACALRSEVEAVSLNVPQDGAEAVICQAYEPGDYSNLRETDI
T1 sequence (P43140 whole entry): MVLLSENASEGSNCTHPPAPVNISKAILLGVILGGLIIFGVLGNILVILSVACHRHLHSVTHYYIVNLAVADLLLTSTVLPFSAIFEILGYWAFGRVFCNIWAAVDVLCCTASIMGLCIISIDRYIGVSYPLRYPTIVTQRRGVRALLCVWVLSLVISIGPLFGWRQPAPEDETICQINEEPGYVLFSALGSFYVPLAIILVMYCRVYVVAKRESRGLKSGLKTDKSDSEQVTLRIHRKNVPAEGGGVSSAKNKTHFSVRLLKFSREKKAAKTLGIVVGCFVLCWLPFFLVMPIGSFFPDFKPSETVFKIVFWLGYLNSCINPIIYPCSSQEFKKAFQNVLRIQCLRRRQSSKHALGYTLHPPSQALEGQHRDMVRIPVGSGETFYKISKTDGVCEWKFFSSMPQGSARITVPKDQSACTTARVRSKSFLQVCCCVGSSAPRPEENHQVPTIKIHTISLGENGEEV

[3] = molecular target: T2, Adrenergic receptor alpha-2 (Rattus norvegicus, UniProt P22086+P19328+P22909); test: Alpha-2 Adrenoceptor blocking activity as antagonism of clonidine-induced depression of field-stimulated prostatic rat vas deferens; type: functional, tissue-based
T2 sequence (P22086 whole entry): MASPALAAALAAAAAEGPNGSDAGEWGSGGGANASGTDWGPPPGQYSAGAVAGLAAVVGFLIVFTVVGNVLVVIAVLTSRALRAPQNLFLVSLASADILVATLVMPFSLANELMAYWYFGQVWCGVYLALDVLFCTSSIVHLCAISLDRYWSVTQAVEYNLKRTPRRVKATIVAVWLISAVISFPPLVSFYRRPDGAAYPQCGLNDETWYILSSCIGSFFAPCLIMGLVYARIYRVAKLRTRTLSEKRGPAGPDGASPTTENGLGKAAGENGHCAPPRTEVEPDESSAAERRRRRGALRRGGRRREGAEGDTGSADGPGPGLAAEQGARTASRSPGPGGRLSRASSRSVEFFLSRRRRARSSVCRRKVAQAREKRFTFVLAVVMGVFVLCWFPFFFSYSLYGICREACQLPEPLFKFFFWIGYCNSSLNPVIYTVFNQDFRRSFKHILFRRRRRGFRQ
T2 sequence (P19328 whole entry): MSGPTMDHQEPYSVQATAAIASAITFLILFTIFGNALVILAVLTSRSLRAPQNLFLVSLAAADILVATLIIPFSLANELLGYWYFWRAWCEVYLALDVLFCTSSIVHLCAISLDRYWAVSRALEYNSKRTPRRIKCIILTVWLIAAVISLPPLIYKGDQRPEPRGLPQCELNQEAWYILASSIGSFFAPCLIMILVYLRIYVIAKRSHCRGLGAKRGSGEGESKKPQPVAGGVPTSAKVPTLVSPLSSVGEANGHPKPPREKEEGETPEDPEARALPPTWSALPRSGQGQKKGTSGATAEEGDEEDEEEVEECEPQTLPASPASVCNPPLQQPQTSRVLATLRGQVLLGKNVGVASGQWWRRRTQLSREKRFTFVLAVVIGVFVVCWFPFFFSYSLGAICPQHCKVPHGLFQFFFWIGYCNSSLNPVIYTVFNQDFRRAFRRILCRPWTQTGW
T2 sequence (P22909 whole entry): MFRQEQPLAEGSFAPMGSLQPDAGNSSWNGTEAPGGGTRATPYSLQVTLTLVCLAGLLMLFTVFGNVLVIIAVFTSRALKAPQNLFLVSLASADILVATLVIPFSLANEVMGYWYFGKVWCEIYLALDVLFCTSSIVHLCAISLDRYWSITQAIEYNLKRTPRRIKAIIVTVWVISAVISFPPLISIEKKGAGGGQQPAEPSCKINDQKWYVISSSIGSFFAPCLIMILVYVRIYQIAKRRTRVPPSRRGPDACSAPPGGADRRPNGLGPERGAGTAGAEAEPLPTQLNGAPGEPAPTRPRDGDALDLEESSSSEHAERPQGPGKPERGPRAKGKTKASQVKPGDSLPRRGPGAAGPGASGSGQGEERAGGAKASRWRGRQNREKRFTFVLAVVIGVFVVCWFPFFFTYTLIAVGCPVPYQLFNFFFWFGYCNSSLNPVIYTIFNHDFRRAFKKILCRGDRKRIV

Row | SMILES | Selectivity ratio [1] | pA2 [2] | pA2 [3]
1 | COc1cc2nc(N3CCN(C(=O)c4ccco4)C(C)C3)nc(N)c2cc1OC (stereo not drawn) | 2100 | 8.61 | 5.23
2 | COc1cc2nc(N3CCN(C(=O)c4ccco4)C[C@H]3C)nc(N)c2cc1OC | 150 | 8.13 | 5.94
3 | COc1cc2nc(N(C)CCCCCCN(C)C(=O)c3ccco3)nc(N)c2cc1OC | 120 |  | 
4 | COc1cc2nc(NC3CCCCC3NC(=O)c3ccco3)nc(N)c2cc1OC (cis isomer) [listing 1 of 2 here] |  | 5.74 | 5.96
5 | COc1cc2nc(NC3CCCCC3NC(=O)c3ccco3)nc(N)c2cc1OC (cis isomer) [listing 2 of 2 here] | 0.6 |  | 
6 | COc1cc2nc(N(C)[C@@H]3CCCCC3N(C)C(=O)c3ccco3)nc(N)c2cc1OC (stereo in doubt; 5) [listing 1 of 2 here] |  | 5.8 | 5.41
7 | COc1cc2nc(N(C)[C@@H]3CCCCC3N(C)C(=O)c3ccco3)nc(N)c2cc1OC (stereo in doubt; 5) [listing 2 of 2 here] | 2.5 |  | 
8 | COc1cc2nc(N(C)[C@@H]3CCCCC3N(C)C(=O)c3ccco3)nc(N)c2cc1OC (stereo in doubt; 6) [listing 1 of 2 here] |  | 5.64 | 5.54
9 | COc1cc2nc(N(C)[C@@H]3CCCCC3N(C)C(=O)c3ccco3)nc(N)c2cc1OC (stereo in doubt; 6) [listing 2 of 2 here] | 1.2 |  | 
10 | COc1cc2nc(N3CCN(C(=O)c4ccco4)C(C)[C@H]3C)nc(N)c2cc1OC (stereo in doubt; 9) [listing 1 of 2 here] |  | 8.75 | 6.41
11 | COc1cc2nc(N3CCN(C(=O)c4ccco4)C(C)[C@H]3C)nc(N)c2cc1OC (stereo in doubt; 9) [listing 2 of 2 here] | 220 |  | 
12 | COc1cc2nc(N3CCN(C(=O)c4ccco4)C(C)[C@H]3C)nc(N)c2cc1OC (stereo in doubt; 10) [listing 1 of 2 here] |  | 7.12 | 4.86
13 | COc1cc2nc(N3CCN(C(=O)c4ccco4)C(C)[C@H]3C)nc(N)c2cc1OC (stereo in doubt; 10) [listing 2 of 2 here] | 180 |  | 
14 | CCC1[C@@H](CC)N(c2nc(N)c3cc(OC)c(OC)cc3n2)CCN1C(=O)c1ccco1 (stereo in doubt; 11) [listing 1 of 2 here] |  | 8.55 | 5.91
15 | CCC1[C@@H](CC)N(c2nc(N)c3cc(OC)c(OC)cc3n2)CCN1C(=O)c1ccco1 (stereo in doubt; 11) [listing 2 of 2 here] | 440 |  | 
16 | CCC1[C@@H](CC)N(c2nc(N)c3cc(OC)c(OC)cc3n2)CCN1C(=O)c1ccco1 (stereo in doubt; 12) [listing 1 of 2 here] |  | 7.09 | 5.05
17 | CCC1[C@@H](CC)N(c2nc(N)c3cc(OC)c(OC)cc3n2)CCN1C(=O)c1ccco1 (stereo in doubt; 12) [listing 2 of 2 here] | 110 |  | 
18 | COc1cc2nc(N3CCN(C(=O)c4ccco4)C4CCCC[C@@H]43)nc(N)c2cc1OC (stereo in doubt; 13) |  |  | 5.08
19 | COc1cc2nc(N3CCN(C(=O)c4ccco4)C4CCCC[C@@H]43)nc(N)c2cc1OC (stereo in doubt; 14) |  |  | 5.15
20 | COc1cc2nc(NC3CCCCC3NC(=O)c3ccco3)nc(N)c2cc1OC (trans isomer) [listing 1 of 2 here] |  | 6.07 | 5.04
21 | COc1cc2nc(NC3CCCCC3NC(=O)c3ccco3)nc(N)c2cc1OC (trans isomer) [listing 2 of 2 here] | 11 |  | 

From ChEMBL document CHEMBL1126615, “Structure-activity relationships in prazosin-related compounds. 2. Role of the piperazine ring on alpha-blocking activity” (J Med Chem, 1993)
